{"source": "patent US20240277813A1", "about": "“TREATMENT OF OBESITY AND OBESITY-RELATED DISORDERS” (ANTAG THERAPEUTICS APS, priority 2021, published 2024)", "key": {"[1]": {"settings": "in vivo", "excerpt": "During the treatment period all monkeys received daily SC injections after breakfast with the respective test substance for a total of 42 days. […] All treatment groups and the vehicle group received injection volumes based on individual body weights. After the 42 days of treatment, body weight, food intake, and blood/serum chemistries were monitored for an additional 14-day washout period. Blood collections and dosing occurred in conscious monkeys for the entire study."}, "[2]": {"tested_on": "high-fat mice", "settings": "daily intraperitoneal injections, cited from earlier work; for glucose tolerance / glycaemic control: compared with high-fat controls"}, "[3]": {"tested_on": "High fat diet (HFD) induced obese cynomolgus monkeys", "assay": "cynomolgus monkey efficacy study, 42 days daily SC treatment", "format": "in vivo, cynomolgus monkeys (Macaca fascicularis)", "description": "Cynomolgus monkeys (Macaca fascicularis) were fed a HFD consisting of 50 g of KBI proprietary standard monkey formula feed in the morning 9:00 to 10:00 AM, 150 g apple in the afternoon 14:00 to 15:00 PM, and 100 g of KBI proprietary HFD in the evening 16:00 to 17:00 PM. Water was provided ad libitum. […] Values represent means±SEM, n=9-10 per group.\nHigh fat diet (HFD) induced obese cynomolgus monkeys (Macaca fascicularis, male, >7.5 kg, fasting glucose<90 mg/dL, fasting insulin<60 μU/mL, >8 years of age) were obtained from KBI's stock colony. Lighting in animal holding rooms was maintained on 12:12 hour light:dark cycle, and the ambient temperature and humidity range was set at 18-29 degrees C. and 30 to 90%, respectively. The monkeys were individually housed in cages arranged to allow visual and auditory contacts with conspecifics. The monkeys were provided with cage toys for environmental enrichment to ensure adequate welfare and psychological well-being.\n8 days prior to the treatment phase, and KBI's proprietary HFD was provided adlibitum which is in contrast to the defined amount of 100 g that the monkeys were normally served. During the entire treatment phase (42 days) and washout period (14 days) monkeys were provided three meals per day consisting of 50 g of KBI proprietary standard monkey formula feed in the morning 9:00-10:00 AM, one regular apple (150 g) in the afternoon 14:00-15:00 PM, and ad libitum of KBI proprietary HFD in the evening 16:00-17:00 PM. Water was provided adlibitum.\nThe cynomolgus monkeys were acclimated/trained to experimental procedures for three weeks followed by one week with continued training and introduction of adlibitum HFD prior to start of treatment. The monkeys were randomly sorted into six separate dose groups with 10 animals each based on acclimation data sets.\nDaily food intake measurements were recorded during the entire duration of the study from the acclimation period until the end of the washout period. After each feeding time, all of the remaining food was withdrawn and intake was determined by weighing the left-over food.\nBody weights were measured every third to fourth day during the study period. The monkeys were non-sedated and were transferred into small transfer cages and transported to a weighing scale. The tare weights of the transfer cages were determined prior to weighing the monkeys inside the transfer cages. The monkeys were weighed twice inside the transfer cages and recordings were made to the nearest 0.1 kg.\nWhole blood sample was collected from a peripheral vein after an overnight fast according to the specified time points and transferred directly into serum separation tubes (SST). Serum was separated by centrifugation at 2500×g for 10 min at 4° C. Insulin, CTX and PTH levels were analyzed using the Cobas e411 Immunology analyzer. Other parameters were analyzed using the Roche C311 or C501 biochemical analyzer."}, "[4]": {"target": "DPP-IV enzyme (Homo sapiens, UniProt P27487)", "sequence (P27487 whole entry, species assumed)": "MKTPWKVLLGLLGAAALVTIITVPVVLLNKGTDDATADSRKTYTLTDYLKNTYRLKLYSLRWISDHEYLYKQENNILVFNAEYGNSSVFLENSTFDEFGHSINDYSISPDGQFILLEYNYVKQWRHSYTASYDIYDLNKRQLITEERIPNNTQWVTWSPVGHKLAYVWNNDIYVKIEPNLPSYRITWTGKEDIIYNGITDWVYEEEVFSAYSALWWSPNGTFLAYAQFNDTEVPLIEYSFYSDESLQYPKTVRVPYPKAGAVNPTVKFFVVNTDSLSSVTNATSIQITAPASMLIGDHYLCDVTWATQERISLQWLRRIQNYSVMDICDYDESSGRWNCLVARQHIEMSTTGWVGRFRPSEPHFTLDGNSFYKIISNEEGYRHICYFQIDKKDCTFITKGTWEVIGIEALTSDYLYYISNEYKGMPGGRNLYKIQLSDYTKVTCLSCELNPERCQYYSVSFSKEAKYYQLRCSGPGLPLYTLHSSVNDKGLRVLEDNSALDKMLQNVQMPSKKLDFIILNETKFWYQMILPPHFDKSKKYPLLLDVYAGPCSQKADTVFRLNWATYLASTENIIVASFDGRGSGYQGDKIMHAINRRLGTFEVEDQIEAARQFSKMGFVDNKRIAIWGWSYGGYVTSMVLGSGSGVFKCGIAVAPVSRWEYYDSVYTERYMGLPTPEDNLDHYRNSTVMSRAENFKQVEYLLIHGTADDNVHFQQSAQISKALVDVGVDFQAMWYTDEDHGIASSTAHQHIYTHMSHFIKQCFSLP", "settings": "cited from earlier work"}, "[5]": {"tested_on": "mice on a fat-diet, or lean mice", "settings": "cited from earlier work; for absolute body weight or cumulative food intake: chronic administration, compared with vehicle control"}}, "note": "Entries after “also recorded” stand apart in the source; their conditions may differ. *1 amine or outer side, *2 acyl side, *3 side chain or, on linkers, in order; H or OH if unused. Where a SMILES comes first, the peptide text is derived from it. Where no end group is shown, it is not given here. Side-chain parts run from the residue outwards. [ ]: non-standard residue; d: D form. The star is where a group is joined. C18 diacid = O=C(O)CCCCCCCCCCCCCCCCC(=O)*; C16 diacid = O=C(O)CCCCCCCCCCCCCCC(=O)*; γGlu = O=C(O)[C@H](CCC(=O)[*:2])N[*:1]; Glutaryl = O=C(CCCC(=O)[*:2])[*:1]; Nle = CCCC[C@H](N)C(=O)O; AEEA = NCCOCCOCC(=O)O; Aib = CC(C)(N)C(=O)O", "data": [{"molecule": "CCCC[C@H](NC(=O)C(C)(C)NC(=O)[C@@H](NC(=O)[C@H](CO)NC(=O)[C@H](Cc1ccc(O)cc1)NC(=O)[C@H](CCC(=O)O)NC(=O)[C@H](CO)NC(=O)[C@@H](NC(=O)[C@H](Cc1ccccc1)NC(=O)[C@@H](NC(=O)CNC(=O)CCCC(=O)O)[C@@H](C)O)[C@@H](C)CC)[C@@H](C)CC)C(=O)N[C@@H](CCC(=O)O)C(=O)N[C@@H](CCCCN)C(=O)N[C@H](C(=O)N[C@@H](CCCCNC(=O)COCCOCCNC(=O)COCCOCCNC(=O)CC[C@H](NC(=O)CCCCCCCCCCCCCCCCC(=O)O)C(=O)O)C(=O)N[C@@H](CCC(N)=O)C(=O)N[C@@H](CCC(N)=O)C(=O)N[C@@H](CCC(=O)O)C(=O)N[C@@H](Cc1ccccc1)C(=O)N[C@H](C(=O)N[C@@H](CCC(=O)O)C(=O)N[C@@H](Cc1c[nH]c2ccccc12)C(=O)N[C@@H](CC(C)C)C(=O)N[C@@H](CC(C)C)C(=O)N[C@@H](C)C(=O)N[C@@H](CCC(N)=O)C(=O)N[C@@H](CCCCN)C(=O)N1CCC[C@H]1C(=O)N[C@@H](CO)C(=O)N[C@@H](CO)C(=O)NCC(=O)N[C@@H](C)C(=O)N1CCC[C@H]1C(=O)N1CCC[C@H]1C(=O)N1CCC[C@H]1C(=O)N[C@@H](CO)C(=O)O)C(C)C)[C@@H](C)CC", "note": "[Compound 2] (Glutaryl-GTFISEYSI[Aib][Nle]EKIK([AEEA-AEEA-γGlu-C18 diacid])QQEFVEWLLAQKPSSGAPPPS-OH)", "values": [{"measurement": "half life (in words)", "setting": "[1]", "value": "long half live"}]}, {"molecule": "(Pro3)GIP", "values": [{"measurement": "glucose tolerance", "setting": "[2]", "value": "significantly improved glucose tolerance"}, {"measurement": "glycaemic control", "setting": "[2]", "value": "restored glycaemic control to normal levels"}, {"measurement": "food intake and body weights", "setting": "[2]", "value": "not affected"}]}, {"molecule": "(d-Ala8)GLP-1", "values": [{"measurement": "glucose tolerance", "setting": "[2]", "value": "significantly improved glucose tolerance"}, {"measurement": "glycaemic control", "setting": "[2]", "value": "restored glycaemic control to normal levels"}, {"measurement": "food intake and body weights", "setting": "[2]", "value": "not affected"}]}, {"molecule": "EGTFISEYSIAibLEKIKQQEFVEWLLAQKPSSGAPPPS-C16-diacid/18K (GIP(3-30)+Cex(31-39) [D9E;A13Aib;M14L;D15E;H18K;D21E;N24E]) (EGTFISEYSI[Aib]LEKIK(C16 diacid)QQEFVEWLLAQKPSSGAPPPS; ends and bridges not checked) [Compound 1]", "values": [{"measurement": "body weight during the study period (in words)", "setting": "[3]; 42 days treatment, placebo gained 9%", "value": "maintained body weight; also recorded: no change in weight"}, {"measurement": "fasting triglycerides (in words)", "setting": "[3]; FIG. 1D", "value": "reduced fasting triglycerides"}, {"measurement": "average HOMA-IR (Homeostatic Model Assessment for Insulin Resistance)", "setting": "[3]; at day 43, FIG. 1C, placebo 25.1", "value": 13.0}, {"measurement": "reduction in LDL-c (individual %-change from predose)", "setting": "[3]; from predose", "value": 26, "unit": "%"}]}, {"molecule": "GLP-1: 31-amino acid peptide derived from the proglucagon gene, secreted by intestinal L-cells", "values": [{"measurement": "half-life", "setting": "[4]", "value": "approximately 2 minutes"}]}, {"molecule": "NaAc-K10[γEγE-C16]-Arg18-hGIP(5-42) [GIPA-2]", "values": [{"measurement": "absolute body weight or cumulative food intake", "setting": "[5]", "value": "no effect"}, {"measurement": "GIPR antagonist potency in mice (comparison)", "setting": "[5]; in mice", "value": "more potent antagonist than GIPA-1"}, {"measurement": "glucose stimulated insulin secretion", "setting": "[5]; in mice", "value": "inhibited glucose stimulated insulin secretion"}]}, {"molecule": "mouse GIP(3-30)NH2 (EGTFISDYSIAMDKIRQQDFVNWLLAQR-NH2; UniProt P48756 46-73, looked up, fragment) [GIPA-1, GIPR antagonist GIP peptide of West et al. 2021]", "values": [{"measurement": "absolute body weight or cumulative food intake", "setting": "[5]", "value": "no effect"}]}]}
